# Measured values from patent publication US12661308B2, “Antimicrobial AZO compounds and uses thereof” (The Regents Of The University Of Colorado, A Body Corporate, priority 2019, dated 2026).
# Experiments:
# [1] = system: S. mutans (ATCC 25175) biofilm; assay: Detachment study of S. mutans biofilm on monomer-coated polymeric substrates (Example 1); type: cell-based, Streptococcus mutans; details: for detachment of S. mutans biofilm (CFU removed): 50 mg/mL coating solution, light/wash treatment
# Experimental: The polymeric substrates were prepared by mixing 54 wt % methyl methacrylate (MMA), 30 wt % polymethylmethacrylate (PMMA, MW ˜35 k), and 16 wt % tetraethylene glycol dimethacrylate (TEGDMA) at 70° C. for 2 hr. After mixing, 1 wt. % azobisisobutyronitrile (AIBN) was added to the formulation as an initiator and mixed.
# The mixed formulation was added to circular molds (diameter=6.5 mm) cut from a strip of rubber (thickness=0.9 mm) and pressed between two glass microscope slides. The mold was clamped together and thermally cured at 80° C. for 1.5 hr.
# The polymeric substrates were coated as follows. Coating solutions were prepared having the following monomer concentrations (see FIG. 3 for structures of the monomers): 0.5 mg/mL and 50 mg/mL solutions of a phenolic acrylated azobenzene monomer (OH-AAZO), 50 mg/mL acrylated azobenzene monomer (AAZO), 50 mg/mL 4-hydroxyl benzylacrylate (HBA), 50 mg/mL 2-hydroxylethyl methacrylate (HEMA).
# The coating solutions included the monomer in N,N′-dimethylformamide (DMF) along with 0.5 mg/mL of AIBN and 0.1 mg/mL of Rhodamine B as an indicator dye. Once mixed, 3 μL of each coating solution was pipetted onto one side of the polymeric substrate and spun at 1000 RPM for 1 min followed by spinning at 6000 RPM for 3 s. The coating was cured under a nail lamp (Melody Susie UV Gel Nail Polish Dryer, Model DR-301C) for at least 15 min before repeating the coating procedure on the other side.
# The controlled growth of biofilms varied depending on the bacteria strain. In the case of S. mutans, a BHI agar plate was streaked with S. mutans (ATCC 25175) and allowed to incubate at 37° C. in 5% CO2 for 60 hr to isolate a single bacterial colony. The colony was inoculated in 5 mL of BHI and allowed to incubate statically in the 5% CO2 incubator for 24 hr. The stock solution was diluted 1:50 in a 96-well plate containing the substrates of interest and allowed to incubate in the 5% CO2 incubator for an additional 24 hr.
# The detachment study quantified the biofilm grown on each substrate via a series of washes in 1×PBS. The substrate was irradiated using a dental lamp (FlashMax P3 Ortho™, 1900 mW/cm2, wavelength=450-470 nm) on the underside of the vial for a total of ten 3 s irradiations per side. Following the series of washes, the substrate was sonicated for 10 min to remove the residual biofilm on the substrate. The wash solutions were serial diluted, plated, and grown at 37° C. and 5% CO2 to obtain the CFU count.
# Images collected from a digital microscope (Zeiss Axioplan II microscope, 630×, step size 0.1 μm) after the substrate and bacteria were treated with BACLIGHT Live/Dead stain are included in FIG. 4.
# S. mutans biofilm = S. mutans biofilm growth on coated pit and fissure dental sealants; type: cell-based, Streptococcus mutans; details: coating on pit and fissure sealants
# Text: In some implementations, the azobenzene polymers can be used as an antimicrobial coating on pit and fissure dental sealants. […] Azobenzene coatings can be incorporated into pit and fissure sealants as an anti-bacterial coating to prevent tooth decay.
Compound,detachment of S. mutans biofilm (CFU removed) [1],"S. mutans biofilm on substrate, Live/Dead stain microscopy ([1]; after wash/light treatment)",S. mutans biofilm growth (S. mutans biofilm)
"C=C(C)C(=O)OCCO [HEMA, 2-hydroxylethyl methacrylate]",minimal detachment,–,–
Acrylated azobenzene [AAZO],minimal detachment,still contained a robust S. mutans biofilm,significantly reduced
"C=CC(=O)OCc1ccc(O)cc1 [HBA, 4-hydroxybenzyl acrylate]",minimal detachment,–,–
